Laboratory results from PMC8620715, “Biological Activity of Triazolopyrimidine Copper(II) Complexes Modulated by an Auxiliary N-N-Chelating Heterocycle Ligands” (Molecules, 2021).
≈ marks a conversion by molar mass, not a printed value. Like-named read-outs stand apart in the source and are kept apart here.

Columns and labels:
[1] = system: B16 murine melanoma cell line; details: cited from earlier work; for TI: 48 h; for IC50: B16, 48 h
E. coli 25922 [2] = details: cited from earlier work
P. aeruginosa 27853 [3] = details: cited from earlier work
S. aureus 25923 [4] = details: cited from earlier work
MRSA 388 [5] = details: cited from earlier work
E. coli 25922 [6] = details: E. coli 25922, biofilm; cited from earlier work
P. aeruginosa 27853 [7] = details: P. aeruginosa 27853, biofilm; cited from earlier work
S. aureus 25923 [8] = details: S. aureus 25923, biofilm; cited from earlier work
MRSA 388 [9] = details: MRSA 388, biofilm; cited from earlier work
[10] = system: B16 murine melanoma cell line; experiment: MTT cell viability assay, B16 melanoma cells; assay type: cell-based, mouse; details: 24 h and 48 h
Procedure: (§1) Human fibroblast cells (BJ—ATCC CRL-2522, USA) were grown in minimal essential medium (MEM) supplemented with 2 mM L-Glutamine, 10% fetal calf serum (FCS), 100 units/mL of penicillin, and 100 µg/mL of streptomycin at 37 °C in a humidified incubator under an atmosphere containing 5% CO2. Mouse melanoma cells (B16—ATCC CRL—6475, USA) were grown in DMEM (Dulbecco’s Modified Eagle Medium) supplemented with similar reagents as MEM. All cell cultivation media and reagents were purchased from Biochrom AG (Berlin, Germany) and Sigma-Aldrich (Darmstadt, Germany).
(§2) Cell viability was evaluated using 3-(4,5-dimethylthiazol-2-yl)-2,5-diphenyltetrazolium bromide (MTT) assay as described previously. First, the cells were seeded in 96-well plates (20000 cells/well) and cultured for 24 h in medium. […] The negative control was represented by cells cultivated in a medium without the investigated compounds. Following incubation, the medium was changed, and the MTT solution was added to each well to a final concentration of 1 mg/mL and incubated for an additional 4 h, at 37 °C. Finally, the medium was collected, and DMSO was used to dissolve the insoluble formazan product. The absorbance of the samples was recorded at 570 nm using a plate reader Mithras 940 (Berthold). The data were corrected for the background, and the percentage of viable cells was obtained using the equation:Cell viability = [(A570 of treated cells)/(A570 of untreated cells)] × 100%(1)
(§3) The half-maximal inhibitory concentration (IC50) was determined by fitting the data with a sigmoidal logistical equation using the software Origin 8.1 (Microcal Inc., Los Angeles, CA, USA).

[11] = system: BJ normal cell line (human fibroblast cells); experiment: MTT cell viability assay, BJ normal cells; assay type: cell-based; details: range of tested concentrations, 24 h and 48 h
Procedure: as §1, §2, §3

BJ cells [12] = experiment: Lactate dehydrogenase (LDH) release assay, BJ cells; assay type: cell-based, human; details: 24 h and 48 h
Procedure: (§4) Membrane integrity after peptide treatment was assessed based on LDH release using a CytoTox 96 Non-Radioactive Cytotoxicity Assay (Promega), as previously described. […] Maximal LDH release was obtained by complete cell lysis induced by using 1% of Triton X-100. The absorption resulting from LDH activity was measured in a microplate reader Mithras 940 (Berthold) at 490 nm, and the % LDH was calculated as: [(corrected absorbance of the LDH released in treated cells)/(corrected absorbance of the total LDH released)] * 100%.

B16 cells [13] = experiment: Lactate dehydrogenase (LDH) release assay, B16 cells; assay type: cell-based, mouse; details: B16, 24 h and 48 h
Procedure: as §4

E. coli 25922 [14] = experiment: MIC by broth microdilution; assay type: cell-based, Escherichia coli; details: Escherichia coli; E. coli 25922, planktonic; read-out: MIC
Procedure: (§5) The antibacterial assays were carried out using two Gram-negative (Escherichia coli ATCC 25922, Pseudomonas aeruginosa ATCC 27853) and two Gram-positive (Staphylococcus aureus ATCC 25923, MRSA (meticillin-Resistant S. aureus) 388 (ATCC, American Type Culture Collection) bacteria.
(§6) The antimicrobial activity of the two complexes (1) and (2) was assessed using their minimum inhibitory concentration (MIC) by the broth microdilution method, as previously described by the Clinical and Laboratory Standard Institute (CLSI; M07-A9 document). A broth microdilution assay was performed in sterile 96-well plates using Muller-Hinton broth (Scharlau; MHB). The compounds solubilized in […] (1,000 μg/mL) were serially diluted in 90 μL MHB, in concentrations ranging between 500 and 0.97 μg/mL. Overnight cultures were used to prepare suspension in phosphate-buffered saline (pH 7.0) to match a 0.5 McFarland density. The bacterial suspensions were further diluted to 1:100 by adding 0.1 mL of bacterial suspension to 9.9 mL of MHB. A volume of 10 μL of this dilution was added to each well of columns 1–10, containing different concentrations of the tested compounds. […] Additionally, 10 μL of the diluted bacterial suspension was added in column 11 (the growth control). A volume of 100 μL MHB was added to the microtiter plates’ sterility control wells (column 12). After inoculation, the plates were incubated at 35 ± 2 °C for 18 h. Growth was measured as light absorbance (620 nm) in comparison to an uninoculated well (negative control). It was detected using a microtiter plate reader (Apollo LB 911ELISA (Berthold Technologies GmbH & Co. KG, Waltham, MA, USA)). The MIC of each compound was defined as the lowest concentration required to inhibit bacterial growth.

P. aeruginosa 27853 [15] = experiment: MIC by broth microdilution; assay type: cell-based, Pseudomonas aeruginosa; details: Pseudomonas aeruginosa; P. aeruginosa 27853, planktonic; read-out: MIC
Procedure: as §5, §6

MRSA 388 [16] = experiment: MIC by broth microdilution; assay type: cell-based, Staphylococcus aureus; details: Staphylococcus aureus; MRSA 388, planktonic; read-out: MIC
Procedure: as §5, §6

S. aureus 25923 [17] = experiment: MIC by broth microdilution; assay type: cell-based, Staphylococcus aureus; details: Staphylococcus aureus; S. aureus 25923, planktonic; read-out: MIC
Procedure: as §5, §6

E. coli 25922 [18] = experiment: Biofilm formation on polystyrene (crystal violet), MBEC; assay type: cell-based, Escherichia coli; details: E. coli 25922, biofilm
Procedure: as §5
(§7) The method for assessment of biofilm formation on polystyrene microtiter plates was based on previously published protocols. The absorbance at 490 nm was measured with an Apollo LB 911ELISA (Berthold Technologies GmbH & Co. KG, Waltham, MA, USA) reader. The minimal biofilm-eradication concentration (MBEC) was defined as the lowest concentration of antibiotics required to eradicate the biofilm. All experiments were performed in triplicate.

P. aeruginosa 27853 [19] = experiment: as above; assay type: cell-based, Pseudomonas aeruginosa; details: P. aeruginosa 27853, biofilm
Procedure: as §5, §7

MRSA 388 [20] = experiment: as above; assay type: cell-based, Staphylococcus aureus; details: MRSA 388, biofilm
Procedure: as §5, §7

S. aureus 25923 [21] = experiment: as above; assay type: cell-based, Staphylococcus aureus; details: S. aureus 25923, biofilm
Procedure: as §5, §7

BJ cells [22] = experiment: Cell morphology by fluorescence microscopy (phalloidin staining), BJ cells; assay type: cell-based, human; details: 2.5 and 10 µg/mL, 24 h
Procedure: (§8) The morphological changes induced by the treatment of the BJ and B16 cell lines with the tested compounds at two different concentrations (2.5 and 10 µg/mL) applied for 24 h were investigated by fluorescence microscopy.
(§9) According to the manufacturer protocol, the cytoskeleton actin filaments of BJ and B16 cells were stained with phalloidin-FITC (Sigma-Aldrich, St. Louis, MO, USA). Briefly, cells were washed with PBS (5 min, 3 times), fixed for 5 min with 3% paraformaldehyde, washed three times with PBS, permeabilized with 0.1% Triton X-100 in PBS for 15 min, washed three times with PBS, stained with 20 μg/mL phalloidin-FITC at room temperature for 1 h and rewashed three times with PBS. The cell nucleus was stained with 8 μM of Hoechst 33342 solution for 10 min, washed three times with PBS, and finally, mounted and sealed on glass slides with FluorSave™ Reagent (Merck Millipore, Germany). The fluorescence images were acquired using an Andor DSD2 Confocal Unit (Andor, Ireland), mounted on an epifluorescence microscope, Olympus BX-51 (Olympus, Germany), equipped with a 40x and 100x objective and an appropriate DAPI/Hoechst filter cube (excitation filter 390/40 […], dichroic mirror 405 nm and emission filter 452/45 nm) and GFP/FITC filter cube (excitation filter 466/40 nm, dichroic mirror 488 nm and emission filter 525/54 nm).

B16 cells [23] = experiment: Cell morphology by fluorescence microscopy (phalloidin staining), B16 cells; assay type: cell-based, mouse; details: 2.5 µg/mL (2.84 μM and 2.76 μM for the complexes), 24 h
Procedure: as §8, §9

Cc1cc(-c2ccccc2)nc2ncnn12.[Cu+2].[O-][Cl+3]([O-])([O-])[O-].[O-][Cl+3]([O-])([O-])[O-].c1ccc(-c2ccccn2)nc1.c1ccc(-c2ccccn2)nc1 [CubPP, [Cu(bpy)2(pmtp)](ClO4)2]
TI [1]: 3.23 | IC50 [1]: 20 µM | MIC (E. coli 25922 [2]): 200 µM | MIC (P. aeruginosa 27853 [3]): 400 µM | MIC (S. aureus 25923 [4]): 400 µM | MIC (MRSA 388 [5]): 400 µM | MBEC (E. coli 25922 [6]): 0.40 mM | MBEC (P. aeruginosa 27853 [7]): 0.40 mM | MBEC (S. aureus 25923 [8]): 0.80 mM | MBEC (MRSA 388 [9]): 0.40 mM

O.[Cu+2].[O-][Cl+3]([O-])([O-])[O-].[O-][Cl+3]([O-])([O-])[O-].c1cnc2c(c1)ccc1cccnc12.c1cnc2c(c1)ccc1cccnc12 [CupP, [Cu(phen)2(OH2)](ClO4)2]
TI [1]: 0.80 | IC50 [1]: 3.7 µM | MIC (E. coli 25922 [2]): 30 µM | MIC (P. aeruginosa 27853 [3]): 500 µM | MIC (S. aureus 25923 [4]): 30 µM | MIC (MRSA 388 [5]): 120 µM | MBEC (E. coli 25922 [6]): 0.10 mM | MBEC (P. aeruginosa 27853 [7]): 0.50 mM | MBEC (S. aureus 25923 [8]): 0.03 mM | MBEC (MRSA 388 [9]): 0.10 mM

Cc1cc(-c2ccccc2)nc2ncnn12.[Cu+2].[O-][Cl+3]([O-])([O-])[O-].[O-][Cl+3]([O-])([O-])[O-].c1cnc2c(c1)ccc1cccnc12.c1cnc2c(c1)ccc1cccnc12 [CupPP, [Cu(phen)2(pmtp)](ClO4)2]
TI [1]: 0.88 | IC50 [1]: 4 µM | MIC (E. coli 25922 [2]): 20 µM | MIC (P. aeruginosa 27853 [3]): 90 µM | MIC (S. aureus 25923 [4]): 10 µM | MIC (MRSA 388 [5]): 50 µM | MBEC (E. coli 25922 [6]): 0.02 mM | MBEC (P. aeruginosa 27853 [7]): 0.09 mM | MBEC (S. aureus 25923 [8]): 0.01 mM | MBEC (MRSA 388 [9]): 0.05 mM

Cc1cc(C)n2ncnc2n1 [dmtp, 5,7-dimethyl-1,2,4-triazolo[1,5-a]pyrimidine, reference compound]
effect on viability of B16 cells [10]: did not affect the viability | effect on viability of BJ cells [11]: did not affect the viability | membrane integrity (LDH release) (BJ cells [12]): did not affect the membrane integrity | membrane integrity (LDH release) (B16 cells [13]): did not affect the membrane integrity | MIC (E. coli 25922 [14]): 8450 µM (≈ 1250 µg/mL) | MIC (P. aeruginosa 27853 [15]): 8450 µM (≈ 1250 µg/mL) | MIC (MRSA 388 [16]): 16900 µM (≈ 2500 µg/mL) | MIC (S. aureus 25923 [17]): 8450 µM (≈ 1250 µg/mL) | MBEC (E. coli 25922 [18]): 8.45 mM | MBEC (P. aeruginosa 27853 [19]): 8.45 mM | MBEC (MRSA 388 [20]): 16.90 mM | MBEC (S. aureus 25923 [21]): 8.45 mM | morphological changes of BJ cells (BJ cells [22]): did not alter their morphology | morphological changes of B16 cells (B16 cells [23]): not altered

{[Cu(bpy)2(μ2OClO3)]ClO4}n [CubP]
TI [1]: 5.53 | IC50 [1]: 16 µM | MIC (E. coli 25922 [2]): 540 µM | MIC (P. aeruginosa 27853 [3]): 1090 µM | MIC (S. aureus 25923 [4]): 270 µM | MIC (MRSA 388 [5]): 270 µM | MBEC (E. coli 25922 [6]): 0.54 mM | MBEC (P. aeruginosa 27853 [7]): 1.09 mM | MBEC (S. aureus 25923 [8]): 0.14 mM | MBEC (MRSA 388 [9]): 0.27 mM
